{"source": "patent US11306098B2", "about": "“Substituted pyrrolo[1,2-a]pyrazines and pyrrolo[1,2-a][1,4]diazepines as TREX1 inhibitors” (VENENUM BIODESIGN, LLC, priority 2019, dated 2022)", "key": {"human TREX1": {"target": "human TREX1 (Homo sapiens (Human), UniProt Q9NSU2)", "sequence (Q9NSU2 1-242)": "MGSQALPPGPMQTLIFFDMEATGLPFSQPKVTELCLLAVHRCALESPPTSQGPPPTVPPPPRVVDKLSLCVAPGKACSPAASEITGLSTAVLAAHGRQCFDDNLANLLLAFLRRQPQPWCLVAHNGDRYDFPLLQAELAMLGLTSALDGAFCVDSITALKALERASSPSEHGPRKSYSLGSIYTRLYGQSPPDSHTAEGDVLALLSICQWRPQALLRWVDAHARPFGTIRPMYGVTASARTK", "assay": "TREX1 Exonuclease Assay (human enzyme)", "type": "biochemical", "details": "human TREX1 0.5 nM, FAM/BHQ1-labeled DNA oligonucleotide", "experimental": "(§1) The TREX1 Exonuclease assay is an exemplary in vitro assay for measuring the activity of the TREX1 inhibitors of the present invention. In this assay, TREX1 exonuclease activity was evaluated by measuring the increase in fluorescence resulting from TREX1-catalyzed removal of a quencher from the 3′ end of a FAM-labeled DNA oligonucleotide (5′FAM-CCA CGA GAG CGT-BHQ1-3′). The assay was conducted using Wild Type (WT) human or murine TREX1 enzyme constructs corresponding to amino acids 55-297 of UniProt ID Q9NSU2-1 (SEQ ID NO: 1), or amino acids 1-242 of UniProt ID Q91XB0-1 (SEQ ID NO: 2), respectively. See, e.g., Example A.\n(§2) For human TREX1, the nucleotide sequence of the gene construct was codon optimized for expression in the bacterial host. The sequence was incorporated into the pMAL-c5e vector (NEB) downstream of a solubility-promoting MBP (maltose binding protein) fusion partner. The fusion protein product was expressed in E. coli strain BL21 (DE3) (Millipore) and purified in a series of chromatographic steps. Initial steps were conducted using a dextrin sepharose affinity column followed by a Q-sepharose ion exchange column (both GE Healthcare). After the second column the MBP partner was removed by incubation with enterokinase (NEB). Further purification was carried out with the second application of a Q-sepharose column followed by a Superdex 75 (GE Healthcare) size exclusion column. Finally, a heparin sepharose column (GE Healthcare) was applied to remove contaminating nucleotides. Similar methods were used in the preparation of the murine TREX1 enzyme and are described in Example B set forth below.\n(§3) To evaluate the effect of compounds on TREX1 activity, test compounds were serially diluted (11-point, 3-fold) from 10 mM stock solutions and delivered to 384-well low-volume assay plates in 80 nL DMSO using an acoustic dispenser. Next, 4 μL of human TREX1 (0.5 nM), or murine TREX1 (1 nM), diluted in assay buffer (20 mM Tris pH 7.5, 5 mM MgCl2, 100 μg/mL BSA, 0.002% Triton X-100, 2 mM DTT), was added to the assay plate. After incubating for 30 minutes, 4 μL of labeled DNA oligonucleotide (500 nM) in assay buffer was added to initiate TREX1 exonuclease activity. The reaction was allowed to proceed for 45 minutes at room temperature prior to the addition of 4 μL of 150 mM EDTA to halt TREX1 activity. Assay plates were equilibrated for an additional 30 minutes and read on an EnVision Plate Reader (Perkin Elmer) to measure fluorescence emission at 535 nm following excitation at 485 nm. Fluorescence was plotted as a function of log molar compound concentration and fit to four-parameter dose-response equation to determine compound IC50."}, "murine TREX1": {"target": "murine TREX1 (Mus musculus (Mouse), UniProt Q91XB0)", "sequence (Q91XB0 1-242)": "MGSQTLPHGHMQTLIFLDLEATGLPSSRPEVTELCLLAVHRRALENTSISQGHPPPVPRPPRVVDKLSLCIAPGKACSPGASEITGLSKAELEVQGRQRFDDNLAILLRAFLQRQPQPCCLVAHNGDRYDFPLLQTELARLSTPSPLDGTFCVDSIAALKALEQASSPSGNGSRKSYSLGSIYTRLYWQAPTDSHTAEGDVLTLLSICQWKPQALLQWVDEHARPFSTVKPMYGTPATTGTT", "assay": "TREX1 Exonuclease Assay (murine enzyme)", "type": "biochemical", "details": "murine TREX1 1 nM, FAM/BHQ1-labeled DNA oligonucleotide", "experimental": "as §1, §2, §3"}}, "note": "Counter-ions that a name gives are not always drawn."}
{"smiles": "N[C@@H]1C[C@H]2C(=O)N([C@H](CCC(=O)O)C(=O)NCc3ccc(C(F)(F)F)cc3)CCC(CCc3ccccc3)N2C1", "note": "(single isomer, unassigned) [Example 2A]", "values": [{"measurement": "IC50", "setting": "human TREX1", "value": "10 to 100", "unit": "µM"}, {"measurement": "IC50", "setting": "murine TREX1", "value": "10 to 100", "unit": "µM"}]}
{"smiles": "C[C@H](C(=O)NCc1ccc(C(F)(F)F)cc1)N1CCC(CCc2ccccc2)N2C[C@H](N)C[C@H]2C1=O", "note": "(some centres unmarked) [Example 5]", "values": [{"measurement": "IC50", "setting": "human TREX1", "value": "< 1", "unit": "µM"}, {"measurement": "IC50", "setting": "murine TREX1", "value": "< 1", "unit": "µM"}]}
{"smiles": "CC(C)C[C@H](C(=O)NCc1ccc(C(F)(F)F)cc1)N1CCC(CCc2ccccc2)N2C[C@H](N)C[C@H]2C1=O", "note": "(some centres unmarked) [Example 6]", "values": [{"measurement": "IC50", "setting": "human TREX1", "value": "< 1", "unit": "µM"}, {"measurement": "IC50", "setting": "murine TREX1", "value": "< 1", "unit": "µM"}]}
{"smiles": "CC(C)C[C@H](C(=O)N(C)Cc1ccc(C(F)(F)F)cc1)N1CCC(CCc2ccccc2)N2C[C@H](N)C[C@H]2C1=O", "note": "(some centres unmarked) [Example 7]", "values": [{"measurement": "IC50", "setting": "human TREX1", "value": "1 to 9.99", "unit": "µM"}, {"measurement": "IC50", "setting": "murine TREX1", "value": "1 to 9.99", "unit": "µM"}]}
{"smiles": "CC(C)C[C@H](C(=O)NCc1ccccc1)N1CCC(CCc2ccccc2)N2C[C@H](N)C[C@H]2C1=O", "note": "(some centres unmarked) [Example 8]", "values": [{"measurement": "IC50", "setting": "human TREX1", "value": "1 to 9.99", "unit": "µM"}, {"measurement": "IC50", "setting": "murine TREX1", "value": "10 to 100", "unit": "µM"}]}
{"smiles": "Cc1ccc(CNC(=O)[C@@H](CC(C)C)N2CCC(CCc3ccccc3)N3C[C@H](N)C[C@H]3C2=O)cc1", "note": "(some centres unmarked) [Example 9]", "values": [{"measurement": "IC50", "setting": "human TREX1", "value": "1 to 9.99", "unit": "µM"}, {"measurement": "IC50", "setting": "murine TREX1", "value": "1 to 9.99", "unit": "µM"}]}
{"smiles": "CC(C)C[C@H](C(=O)NCc1ccc(Cl)c(Cl)c1)N1CCC(Cc2ccccc2)N2C[C@H](N)C[C@H]2C1=O", "note": "(some centres unmarked) [Example 10]", "values": [{"measurement": "IC50", "setting": "human TREX1", "value": "1 to 9.99", "unit": "µM"}, {"measurement": "IC50", "setting": "murine TREX1", "value": "1 to 9.99", "unit": "µM"}]}
{"smiles": "CC(C)C[C@H](C(=O)NCc1ccc(Cl)c(Cl)c1)N1CCC(CCc2ccc(Cl)cc2)N2C[C@H](N)C[C@H]2C1=O", "note": "(some centres unmarked) [Example 11]", "values": [{"measurement": "IC50", "setting": "human TREX1", "value": "< 1", "unit": "µM"}, {"measurement": "IC50", "setting": "murine TREX1", "value": "1 to 9.99", "unit": "µM"}]}
{"smiles": "CC(C)C[C@H](C(=O)NCC1CCCCC1)N1CCC(CCc2ccccc2)N2C[C@H](N)C[C@H]2C1=O", "note": "(some centres unmarked) [Example 12]", "values": [{"measurement": "IC50", "setting": "human TREX1", "value": "10 to 100", "unit": "µM"}, {"measurement": "IC50", "setting": "murine TREX1", "value": "10 to 100", "unit": "µM"}]}
{"smiles": "CC(C)C[C@H](C(=O)NCc1ccc(Cl)c(Cl)c1)N1CCC(C)N2C[C@H](N)C[C@H]2C1=O", "note": "(some centres unmarked) [Example 13]", "values": [{"measurement": "IC50", "setting": "human TREX1", "value": "10 to 100", "unit": "µM"}, {"measurement": "IC50", "setting": "murine TREX1", "value": "10 to 100", "unit": "µM"}]}
{"smiles": "N[C@@H]1C[C@H]2C(=O)N([C@H](CCC(=O)O)C(=O)NCc3ccc(Cl)c(Cl)c3)CCC(CCc3ccccc3)N2C1", "note": "(some centres unmarked) [Example 14A]", "values": [{"measurement": "IC50", "setting": "human TREX1", "value": "10 to 100", "unit": "µM"}, {"measurement": "IC50", "setting": "murine TREX1", "value": "10 to 100", "unit": "µM"}]}
{"smiles": "N[C@@H]1C[C@H]2C(=O)N([C@H](CCC(=O)O)C(=O)NCc3ccc(Cl)c(Cl)c3)CCC(COc3ccccc3)N2C1", "note": "(some centres unmarked) [Example 17]", "values": [{"measurement": "IC50", "setting": "human TREX1", "value": "< 1", "unit": "µM"}, {"measurement": "IC50", "setting": "murine TREX1", "value": "< 1", "unit": "µM"}]}
{"smiles": "CC(C)C[C@H](C(=O)NCc1ccc(Cl)c(Cl)c1)N1CCC(CSc2ccccc2)N2C[C@H](N)C[C@H]2C1=O", "note": "(some centres unmarked) [Example 18]", "values": [{"measurement": "IC50", "setting": "human TREX1", "value": "< 1", "unit": "µM"}, {"measurement": "IC50", "setting": "murine TREX1", "value": "< 1", "unit": "µM"}]}
{"smiles": "CC(C)C[C@H](C(=O)NCc1ccc(Cl)c(Cl)c1)N1CCC(COc2ccccc2)N2C[C@H](N)C[C@H]2C1=O", "note": "(some centres unmarked) [Example 19]", "values": [{"measurement": "IC50", "setting": "human TREX1", "value": "< 1", "unit": "µM"}, {"measurement": "IC50", "setting": "murine TREX1", "value": "1 to 9.99", "unit": "µM"}]}
{"smiles": "CC(=O)N[C@@H]1C[C@H]2C(=O)N([C@H](CC(C)C)C(=O)NCc3ccc(Cl)c(Cl)c3)CCC(CCc3ccccc3)N2C1", "note": "(stereo partly drawn) [Example 20, (2R)-2-((8R,9aS)-8-acetamido-1-oxo-5-phenethylhexahydro-1H-pyrrolo[1,2-a][1,4]diazepin-2(3H)-yl)-N-(3,4-dichlorobenzyl)-4-methylpentanamide HCl]", "values": [{"measurement": "IC50", "setting": "human TREX1", "value": "1 to 9.99", "unit": "µM"}, {"measurement": "IC50", "setting": "murine TREX1", "value": "10 to 100", "unit": "µM"}]}
{"smiles": "CC(C)C[C@H](C(=O)NCc1ccc(Cl)c(Cl)c1)N1CCC(CCc2ccccc2)N2C[C@H](N(C)C)C[C@H]2C1=O", "note": "(stereo partly drawn) [Example 21, (2R)—N-(3,4-dichlorobenzyl)-2-((8R,9aS)-8-(dimethylamino)-1-oxo-5-phenethylhexahydro-1H-pyrrolo[1,2-a][1,4]diazepin-2(3H)-yl)-4-methylpentanamide HCl]", "values": [{"measurement": "IC50", "setting": "human TREX1", "value": "10 to 100", "unit": "µM"}, {"measurement": "IC50", "setting": "murine TREX1", "value": "> 100", "unit": "µM"}]}
{"smiles": "CC(C)C[C@H](C(=O)NCc1ccc(Cl)c(Cl)c1)N1CC(CCc2ccccc2)N2C[C@H](N)C[C@H]2C1=O", "note": "(stereo partly drawn) [Example 22, (2R)-2-((7R,8aS)-7-amino-1-oxo-4-phenethylhexahydropyrrolo[1,2-a]pyrazin-2(1H)-yl)-N-(3,4-dichlorobenzyl)-4-methylpentanamide.HCl]", "values": [{"measurement": "IC50", "setting": "human TREX1", "value": "10 to 100", "unit": "µM"}, {"measurement": "IC50", "setting": "murine TREX1", "value": "10 to 100", "unit": "µM"}]}
{"smiles": "CC(C)C[C@H](C(=O)NCCc1ccccc1)N1CCC(CCc2ccccc2)N2C[C@H](N)C[C@H]2C1=O", "note": "(some centres unmarked) [Example 23]", "values": [{"measurement": "IC50", "setting": "human TREX1", "value": "1 to 9.99", "unit": "µM"}, {"measurement": "IC50", "setting": "murine TREX1", "value": "10 to 100", "unit": "µM"}]}
{"smiles": "CC(C)C[C@H](C(=O)N[C@H](C)c1ccccc1)N1CCC(CCc2ccccc2)N2C[C@H](N)C[C@H]2C1=O", "note": "(some centres unmarked) [Example 24]", "values": [{"measurement": "IC50", "setting": "human TREX1", "value": "10 to 100", "unit": "µM"}, {"measurement": "IC50", "setting": "murine TREX1", "value": "10 to 100", "unit": "µM"}]}
